Reference: PMC10428205, “Cytotoxicity of Ruthenium(II) Arene Complexes Containing Functionalized Ferrocenyl β-Diketonate Ligands” (Organometallics, 2023)

Tests used:
MIA PaCa-2 = assay: Comet assay of cellular DNA damage; assay type: cell-based, human; conditions: MIA PaCa-2, 48 h incubation, varying concentration
Description: Complexes 2, 4, and 7 were chosen due to their range in cytotoxicity, where complex 2 is moderately active and complexes 4 and 7 have the highest activities. Their ability to induce single-strand breakage (SSB) of DNA with varying concentrations of compound was studied after incubation with MIA PaCa-2 cells for 48 h. After harvesting the cells, quantification of the levels of SSB of DNA were assessed by using the alkaline comet assay.
Samples were then taken up in Optima high purity nitric acid, diluted to 10 mL with 1mL rhodium internal standard and 9 mL 18.2 Ultrapure water. The elemental contents of the samples were determined using ICP-MS-QQQ Thermo TQ spectrometer. Measurement of iron mass 56 and ruthenium isotope mass 100 was conducted by comparing solutions of known concentration and intensities. A series of standard calibration curves allows the concentration of each element to be determined. […]
The media -free wells were then trypsinized (1 mL) for 3 -5 minutes and then neutralized with high glucose DMEM (1 mL), these were all added to the centrifuge t ube and centrifuged at 1500 rpm for 3 minutes. […] Staining solution (150 mL) was added to each slide and the Comets analysed using Comet assay III software. A minimum of 50 different comets were scored and the computer outputs an average on head and tail intensities and tail moments. […]

[1] = Hydrophobicity, octanol-water shake-flask; assay type: physicochemical
Description: curves to give an average concentration for shaken samples ([C]final). The concentration of an unshaken sample
of stock solution was determined to give [C]initial. The partition coefficient (LogP) was determined with by Eqn1. […]
All assays were conducted in triplicate.

[NH2][Pt]([NH2])([Cl])[Cl] [CDDP, cisplatin, reference compound]
single-strand breakage (SSB) of DNA (MIA PaCa-2): dose-dependent SSB similar to that of complex 4
LogP [1]: -2.20 ± 0.20
